Data as given in US8658637B2, “Glucocorticoid mimetics, methods of making them, pharmaceutical compositions and uses thereof” (Boehringer Ingelheim International GmbH, priority 2006, dated 2014).

System: IL-6 production in human foreskin fibroblast cells
Assay: Inhibition of IL-6 Production in Fibroblasts (Cell Assay for Transrepression)
Assay type: cell-based
Settings: IL-1 stimulated human foreskin fibroblasts; for EC50: read-out: agonistic activity (EC50) by inhibiting IL-6 production in Fibroblasts; for Emax: read-out: efficacy by inhibiting IL-6 production in Fibroblasts
Description: 2. Inhibition of IL-6 Production in Fibroblasts (Cell Assay for Transrepression)
Human foreskin fibroblast cells produce IL-6 in response to stimulation by proinflammatory cytokine IL-1.
Human foreskin fibroblast cells (ATCC Cat. No. CRL-2429) are plated on 96 well plates at 5,000 cells per well the day before use, in Iscove's Modified Dulbecco's Media (GibcoBRL Life Technologies Cat. No. 12440-053) supplemented with 10% charcoal filtered FBS (Clonetech Cat. No. SH30068) and Gentamycin (GibcoBRL Life Technologies Cat. No. 15710-064). On the next day, media in the wells is replaced with fresh media. Cells are treated with IL-1 (rhIL-1α, R&D Systems Cat. No. 200-LA) to a final concentration of 1 ng/mL, and with test compounds to final concentrations of 10^−5 M to 10^−8 M, in a total volume of 200 μL per well. Samples are done in duplicates. […] Positive control wells receive IL-1 only and represent maximum (or 100%) amount of IL-6 production. Plates are incubated at 37° C. overnight (15 to 18 hours), and supernatants are harvested at the end of incubation. IL-6 levels in the supernatants are determined by the ELISA kits for IL-6 (MedSystems Diagnostics GmbH, Vienna, Austria, Cat. No. BMS213TEN) according to manufacture's instructions. The extent of inhibition of IL-6 by test compounds is expressed in percentage relative to positive controls. IC50 values of test compounds are derived by non-linear curve fitting.

C=CCn1cc(C(O)(c2ccc3c(cnn3-c3ccc(F)cc3)c2)C(F)(F)F)c2ccc(Br)cc21 (stereo not shown) [1-(1-Allyl-6-bromo-1H-indol-3-yl)-2,2,2-trifluoro-1-[1-(4-fluorophenyl)-1H-indazol-5-yl]ethanol]
EC50: ≤ 1000 nM | Emax: > 50%

C=CCCn1cc(C(O)(c2ccc3c(cnn3-c3ccc(F)cc3)c2)C(F)(F)F)c2ccccc21 (stereo not shown) [1-(1-But-3-enyl-1H-indol-3-yl)-2,2,2-trifluoro-1-[1-(4-fluorophenyl)-1H-indazol-5-yl]ethanol]
EC50: ≤ 1000 nM | Emax: > 50%

N#Cc1nn(CC(O)CO)cc1C(O)(c1ccc2c(cnn2-c2ccc(F)cc2)c1)C(F)(F)F (stereo not shown) [1-(2,3-Dihydroxypropyl)-4-{2,2,2-trifluoro-1-[1-(4-fluorophenyl)-1H-indazol-5-yl]-1-hydroxyethyl}-1H-pyrazole-3-carbonitrile]
EC50: ≤ 1000 nM | Emax: > 50%

CCOC(=O)c1cc(C(O)(c2ccc3c(cnn3-c3ccc(F)cc3)c2)C(F)(F)F)cn1CC(O)CO (stereo not shown) [1-(2,3-Dihydroxypropyl)-4-{2,2,2-trifluoro-1-[1-(4-fluorophenyl)-1H-indazol-5-yl]-1-hydroxyethyl}-1H-pyrrole-2-carboxylic acid ethyl ester]
EC50: ≤ 1000 nM | Emax: > 50%

C=CCCn1cc(C(O)(c2ccc3c(cnn3-c3ccc(F)cc3)c2)C(F)(F)F)c2ccc(Br)cc21 (stereo not shown) [1-(6-Bromo-1-but-3-enyl-1H-indol-3-yl)-2,2,2-trifluoro-1-[1-(4-fluorophenyl)-1H-indazol-5-yl]ethanol]
EC50: ≤ 1000 nM | Emax: > 50%

OC(c1ccc2c(cnn2-c2ccc(F)cc2)c1)(c1c[nH]c2c(Cl)nccc12)C(F)(F)F (stereo not shown) [1-(7-Chloro-1H-pyrrolo[2,3-c]pyridin-3-yl)-2,2,2-trifluoro-1-[1-(4-fluorophenyl)-1H-indazol-5-yl]ethanol]
EC50: ≤ 1000 nM | Emax: > 50%

C=CCn1cc(C(O)(c2ccc3c(cnn3-c3ccc(F)cc3)c2)C(F)(F)F)c(C#N)n1 (stereo not shown) [1-Allyl-4-{2,2,2-trifluoro-1-[1-(4-fluorophenyl)-1H-indazol-5-yl]-1-hydroxyethyl}-1H-pyrazole-3-carbonitrile]
EC50: ≤ 1000 nM | Emax: > 50%

C=CCn1cc(C(O)(c2ccc3c(cnn3-c3ccc(F)cc3)c2)C(F)(F)F)cc1C(=O)OCC (stereo not shown) [1-Allyl-4-{2,2,2-trifluoro-1-[1-(4-fluorophenyl)-1H-indazol-5-yl]-1-hydroxyethyl}-1H-pyrrole-2-carboxylic acid ethyl ester]
EC50: ≤ 1000 nM | Emax: > 50%

C=CCn1cc(C(O)(c2ccc3c(cnn3-c3ccc(F)cc3)c2)C(F)(F)F)c2ccn(C)c(=O)c21 (stereo not shown) [1-Allyl-6-methyl-3-{2,2,2-trifluoro-1-[1-(4-fluorophenyl)-1H-indazol-5-yl]-1-hydroxyethyl}-1,6-dihydropyrrolo[2,3-c]pyridin-7-one]
EC50: ≤ 1000 nM | Emax: > 50%

CC1(C)OCC(Cn2cc(C(O)(c3ccn4c(-c5ccc(F)cc5)ncc4c3)C(F)(F)F)c3ccccc32)O1 (stereo not shown) [1-[1-(2,2-Dimethyl-1,3-dioxolan-4-ylmethyl)-1H-indol-3-yl]-2,2,2-trifluoro-1-[3-(4-fluorophenyl)imidazo[1,5-a]pyridin-7-yl]ethanol]
EC50: ≤ 1000 nM | Emax: > 50%

OCCn1cc(C(O)(c2ccc3c(cnn3-c3ccc(F)cc3)c2)C(F)(F)F)c2ncnc(Cl)c21 (stereo not shown) [1-[4-Chloro-5-(2-hydroxyethyl)-5H-pyrrolo[3,2-d]pyrimidin-7-yl]-2,2,2-trifluoro-1-[1-(4-fluorophenyl)-1H-indazol-5-yl]ethanol]
EC50: ≤ 1000 nM | Emax: > 50%

Cn1cc(C(O)(c2ccc3c(cnn3-c3cccnc3)c2)C(F)(F)F)c2ccccc21 (stereo not shown) [2,2,2-Trifluoro-1-(1-methyl-1H-indol-3-yl)-1-(1-pyridin-3-yl-1H-indazol-5-yl)ethanol]
EC50: ≤ 1000 nM | Emax: > 50%

Cn1cc(C(O)(c2ccc3c(cnn3-c3ccsc3)c2)C(F)(F)F)c2ccccc21 (stereo not shown) [2,2,2-Trifluoro-1-(1-methyl-1H-indol-3-yl)-1-(1-thiophen-3-yl-1H-indazol-5-yl)ethanol]
EC50: ≤ 1000 nM | Emax: > 50%

Cn1cc(-n2ncc3cc(C(O)(c4cn(C)c5ccccc45)C(F)(F)F)ccc32)cn1 (stereo not shown) [2,2,2-Trifluoro-1-(1-methyl-1H-indol-3-yl)-1-[1-(1-methyl-1H-pyrazol-4-yl)-1H-indazol-5-yl]ethanol]
EC50: ≤ 1000 nM | Emax: > 50%

Cn1cc(C(O)(c2ccc3c(c2)nnn3-c2ccc(F)cc2)C(F)(F)F)c2ccccc21 (stereo not shown) [2,2,2-Trifluoro-1-[1-(4-fluorophenyl)-1H-benzotriazol-5-yl]-1-(1-methyl-1H-indol-3-yl)ethanol]
EC50: ≤ 1000 nM | Emax: > 50%

OC(c1ccc2c(cnn2-c2ccc(F)cc2)c1)(c1c[nH]c2ncccc12)C(F)(F)F (stereo not shown) [2,2,2-Trifluoro-1-[1-(4-fluorophenyl)-1H-indazol-5-yl]-1-(1H-pyrrolo[2,3-b]pyridin-3-yl)ethanol]
EC50: ≤ 1000 nM | Emax: > 50%

COc1nccc2c(C(O)(c3ccc4c(cnn4-c4ccc(F)cc4)c3)C(F)(F)F)c[nH]c12 (stereo not shown) [2,2,2-Trifluoro-1-[1-(4-fluorophenyl)-1H-indazol-5-yl]-1-(7-methoxy-1H-pyrrolo[2,3-c]pyridin-3-yl)ethanol]
EC50: ≤ 1000 nM | Emax: > 50%

[O-][n+]1cccc2c(C(O)(c3ccc4c(cnn4-c4ccc(F)cc4)c3)C(F)(F)F)c[nH]c21 (stereo not shown) [2,2,2-Trifluoro-1-[1-(4-fluorophenyl)-1H-indazol-5-yl]-1-(7-oxy-1H-pyrrolo[2,3-b]pyridin-3-yl)ethanol]
EC50: ≤ 1000 nM | Emax: > 50%

OC(c1ccc2c(cnn2-c2ccc(F)cc2)c1)(c1cn(CCN2CCOCC2)c2ccccc12)C(F)(F)F (stereo not shown) [2,2,2-Trifluoro-1-[1-(4-fluorophenyl)-1H-indazol-5-yl]-1-[1-(2-morpholin-4-ylethyl)-1H-indol-3-yl]ethanol]
EC50: ≤ 1000 nM | Emax: > 50%

OC(c1ccc2c(cnn2-c2ccc(F)cc2)c1)(c1cn(CC2CCCO2)c2ccccc12)C(F)(F)F (stereo not shown) [2,2,2-Trifluoro-1-[1-(4-fluorophenyl)-1H-indazol-5-yl]-1-[1-(tetrahydro-furan-2-ylmethyl)-1H-indol-3-yl]ethanol]
EC50: ≤ 1000 nM | Emax: > 50%

Cn1cc(C(O)(c2ccc3c(cnn3-c3ccc(F)nc3)c2)C(F)(F)F)c2ccccc21 (stereo not shown) [2,2,2-Trifluoro-1-[1-(6-fluoropyridin-3-yl)-1H-indazol-5-yl]-1-(1-methyl-1H-indol-3-yl)ethanol]
EC50: ≤ 1000 nM | Emax: > 50%

Cn1cc(C(O)(c2ccn3c(-c4ccc(F)cc4)ncc3c2)C(F)(F)F)c2ccccc21 (stereo not shown) [2,2,2-Trifluoro-1-[3-(4-fluorophenyl)imidazo[1,5-a]pyridin-7-yl]-1-(1-methyl-1H-indol-3-yl)ethanol]
EC50: ≤ 1000 nM | Emax: > 50%

NC(=O)Cn1cc(C(O)(c2ccc3c(cnn3-c3ccc(F)cc3)c2)C(F)(F)F)c2cccnc21 (stereo not shown) [2-(3-{2,2,2-Trifluoro-1-[1-(4-fluorophenyl)-1H-indazol-5-yl]-1-hydroxyethyl}pyrrolo[2,3-b]pyridin-1-yl)acetamide]
EC50: ≤ 1000 nM | Emax: > 50%

CNC(=O)Cn1cc(C(O)(c2ccc3c(cnn3-c3ccc(F)cc3)c2)C(F)(F)F)c2ccc(Br)cc21 (stereo not shown) [2-(6-Bromo-3-{2,2,2-trifluoro-1-[1-(4-fluorophenyl)-1H-indazol-5-yl]-1-hydroxyethyl}indol-1-yl)-N-methylacetamide]
EC50: ≤ 1000 nM | Emax: > 50%

Cn1ccc2c(C(O)(c3ccc4c(cnn4-c4ccc(F)cc4)c3)C(F)(F)F)cn(CC(N)=O)c2c1=O (stereo not shown) [2-(6-Methyl-7-oxo-3-{2,2,2-trifluoro-1-[1-(4-fluorophenyl)-1H-indazol-5-yl]-1-hydroxyethyl}-6,7-dihydropyrrolo[2,3-c]pyridin-1-yl)acetamide]
EC50: ≤ 1000 nM | Emax: > 50%

NC(=O)Cn1cc(C(O)(c2ccc3c(cnn3-c3ccc(F)cc3)c2)C(F)(F)F)c2ccnc(Cl)c21 (stereo not shown) [2-(7-Chloro-3-{2,2,2-trifluoro-1-[1-(4-fluorophenyl)-1H-indazol-5-yl]-1-hydroxyethyl}pyrrolo[2,3-c]pyridin-1-yl)acetamide]
EC50: ≤ 1000 nM | Emax: > 50%

NC(=O)Cn1cc(C(O)(c2ccc3c(cnn3-c3cccnc3)c2)C(F)(F)F)c2ccccc21 (stereo not shown) [2-{3-[2,2,2-Trifluoro-1-hydroxy-1-(1-pyridin-3-yl-1H-indazol-5-yl)ethyl]indol-1-yl}acetamide]
EC50: ≤ 1000 nM | Emax: > 50%

OCC(O)Cn1cc(C(O)(c2ccc3c(c2)nnn3-c2ccc(F)cc2)C(F)(F)F)c2ccccc21 (stereo not shown) [3-(3-{2,2,2-Trifluoro-1-[1-(4-fluorophenyl)-1H-benzotriazol-5-yl]-1-hydroxyethyl}indol-1-yl)propane-1,2-diol]
EC50: ≤ 1000 nM | Emax: > 50%

NC(=O)CCn1cc(C(O)(c2ccc3c(cnn3-c3ccc(F)cc3)c2)C(F)(F)F)c2ccccc21 (stereo not shown) [3-(3-{2,2,2-Trifluoro-1-[1-(4-fluorophenyl)-1H-indazol-5-yl]-1-hydroxyethyl}indol-1-yl)propionamide]
EC50: ≤ 1000 nM | Emax: > 50%
